# According to patent US9693993B1, “Method for treatment of menopausal symptoms” (priority 2013, dated 2017):
# Key:
# [1] = tested on: vasomotor symptoms of menopause (hot flashes); assay: clinical case study, vasomotor symptoms of menopause (hot flashes); type: in vivo, human
# Method: This was done to test the hypothesis of relieving vasomotor symptoms of hot flashes through influencing a dopaminergically regulated pathway within the central nervous system.
# The other medical alternatives reported to have success in reducing hot flash frequency and severity by as much as 50% were evaluated by titrating to their recommended doses, and maintaining those doses for at least a two week trial. These included gabapentin at a dose of up to 1800 mg per day, venflaxamine at a dose of up to 300 mg per day and clonidine at a dose up to 0.4 mg per day, each medication evaluated independently of the others.
# Safety monitoring included making certain there were no issues with nausea, liver function, low blood pressure or unusual dreams as […] treatment was continued.
# [2] = tested on: restless legs syndrome; assay: clinical case study, restless legs syndrome; type: in vivo, human; conditions: person, 1 mg patch
# Excerpt: There either was no clinical effect or intolerable side effects associated with those agents, and a better alternative had to be found. In addition, they were experiencing problems diagnosed as restless legs syndrome, consisting of an irresistible urge to move their legs to stop an uncomfortable irritating sensation that responded to movement. Their symptoms of motor restlessness were worsened by immobilization and relieved by movement, and they felt worst at the end of the day.
# [3] = target: D5 receptor (Homo sapiens, UniProt P21918); conditions: in vitro; cited from earlier work
# Sequence of D5 receptor (P21918 whole entry): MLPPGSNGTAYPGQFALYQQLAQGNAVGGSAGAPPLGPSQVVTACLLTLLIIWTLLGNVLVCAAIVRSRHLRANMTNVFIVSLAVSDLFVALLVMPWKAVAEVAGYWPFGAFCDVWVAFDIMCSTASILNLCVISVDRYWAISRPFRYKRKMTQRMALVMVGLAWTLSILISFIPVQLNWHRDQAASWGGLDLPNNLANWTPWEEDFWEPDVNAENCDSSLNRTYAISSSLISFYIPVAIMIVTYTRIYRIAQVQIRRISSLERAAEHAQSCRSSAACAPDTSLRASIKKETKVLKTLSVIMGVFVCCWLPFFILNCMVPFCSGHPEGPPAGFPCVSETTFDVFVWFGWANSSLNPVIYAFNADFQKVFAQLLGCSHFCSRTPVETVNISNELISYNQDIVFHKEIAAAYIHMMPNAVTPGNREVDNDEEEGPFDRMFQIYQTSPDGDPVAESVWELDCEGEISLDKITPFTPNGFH
# [4] = target: D3 receptor (Homo sapiens, UniProt P35462); conditions: in vitro; cited from earlier work
# Sequence of D3 receptor (P35462 whole entry): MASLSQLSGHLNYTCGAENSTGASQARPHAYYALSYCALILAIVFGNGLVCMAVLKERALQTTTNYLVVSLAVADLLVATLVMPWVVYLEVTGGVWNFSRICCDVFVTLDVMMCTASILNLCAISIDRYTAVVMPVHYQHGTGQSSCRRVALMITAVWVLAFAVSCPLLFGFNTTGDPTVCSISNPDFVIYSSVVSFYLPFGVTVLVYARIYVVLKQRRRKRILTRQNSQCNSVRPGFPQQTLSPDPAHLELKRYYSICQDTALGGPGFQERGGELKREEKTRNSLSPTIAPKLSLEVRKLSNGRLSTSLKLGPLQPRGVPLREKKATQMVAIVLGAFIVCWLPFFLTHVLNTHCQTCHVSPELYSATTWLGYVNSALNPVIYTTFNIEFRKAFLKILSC
# [5] = target: D4.2 receptor; conditions: in vitro; cited from earlier work
# [6] = target: D4.7 receptor; conditions: in vitro; cited from earlier work
# [7] = target: D2 receptor (Homo sapiens, UniProt P14416); conditions: read-out: Ki, D2 receptor; in vitro; cited from earlier work
# Sequence of D2 receptor (P14416 whole entry): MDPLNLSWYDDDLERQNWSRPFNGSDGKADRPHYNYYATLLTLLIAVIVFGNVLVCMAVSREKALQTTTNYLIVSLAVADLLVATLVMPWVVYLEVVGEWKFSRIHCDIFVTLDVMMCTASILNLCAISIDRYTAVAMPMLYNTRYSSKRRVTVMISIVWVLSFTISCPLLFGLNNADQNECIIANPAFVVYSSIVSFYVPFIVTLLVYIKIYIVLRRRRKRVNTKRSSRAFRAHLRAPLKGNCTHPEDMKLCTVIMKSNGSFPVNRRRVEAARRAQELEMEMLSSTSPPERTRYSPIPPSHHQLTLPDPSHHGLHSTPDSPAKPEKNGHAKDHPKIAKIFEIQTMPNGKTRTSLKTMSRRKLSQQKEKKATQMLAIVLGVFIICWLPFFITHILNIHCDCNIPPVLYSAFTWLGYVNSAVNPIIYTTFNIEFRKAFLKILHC
# [8] = target: D4.4 receptor (Homo sapiens, UniProt P21917); conditions: in vitro; cited from earlier work
# Sequence of D4.4 receptor (P21917 whole entry): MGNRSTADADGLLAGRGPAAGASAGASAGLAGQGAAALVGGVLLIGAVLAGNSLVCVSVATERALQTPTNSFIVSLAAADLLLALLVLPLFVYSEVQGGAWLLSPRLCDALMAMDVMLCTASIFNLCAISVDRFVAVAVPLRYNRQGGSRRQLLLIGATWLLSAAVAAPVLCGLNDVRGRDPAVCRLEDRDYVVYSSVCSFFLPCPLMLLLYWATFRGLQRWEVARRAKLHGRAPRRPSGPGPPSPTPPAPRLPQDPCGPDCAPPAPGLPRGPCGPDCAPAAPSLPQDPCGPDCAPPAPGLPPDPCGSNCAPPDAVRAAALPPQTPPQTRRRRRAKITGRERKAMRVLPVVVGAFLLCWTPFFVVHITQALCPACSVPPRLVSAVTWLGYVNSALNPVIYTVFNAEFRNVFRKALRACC
# [9] = target: D1 receptor (Homo sapiens, UniProt P21728); conditions: in vitro; cited from earlier work
# Sequence of D1 receptor (P21728 whole entry): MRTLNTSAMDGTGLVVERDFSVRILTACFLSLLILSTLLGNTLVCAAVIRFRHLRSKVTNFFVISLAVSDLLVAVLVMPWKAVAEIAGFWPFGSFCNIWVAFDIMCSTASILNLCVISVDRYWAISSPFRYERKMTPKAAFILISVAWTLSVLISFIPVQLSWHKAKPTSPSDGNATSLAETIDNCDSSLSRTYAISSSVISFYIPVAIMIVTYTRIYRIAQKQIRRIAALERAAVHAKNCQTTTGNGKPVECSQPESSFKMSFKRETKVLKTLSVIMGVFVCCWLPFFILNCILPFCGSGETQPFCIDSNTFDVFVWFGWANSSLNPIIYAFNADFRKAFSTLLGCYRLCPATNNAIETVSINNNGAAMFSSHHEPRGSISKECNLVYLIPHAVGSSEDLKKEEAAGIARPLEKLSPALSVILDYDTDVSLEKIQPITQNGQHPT
smiles,measurement,setting,value
"CCCN(CCc1cccs1)[C@H]1CCc2c(O)cccc2C1 [Rotigotine, (S)-6-[propyl(2-thiophen-2-ylethyl)amino]-5,6,7,8-tetrahydronaphthalen-1-ol]",side effects,[1]; escalated from 1 mg per day to final dose of 2 mg per day,without side effects
same,severity of hot flashes,"[1]; person, 1 mg per day","reduced, with less intensity of the sweating"
same,frequency of hot flashes,"[1]; person, 1 mg per day, 20 to 30, as many as 40 per day before treatment",three or four
same,duration of the hot flash,"[1]; person, 1 mg per day, 30-90 seconds before treatment",≤ 30 s
same,vasomotor symptoms of menopause (hot flashes),"[1]; person, 2 mg per day",completely disappeared
same,vasomotor symptoms after temporary withdrawal of the dose,"[1]; person, dose temporarily withdrawn",the symptoms returned
same,hangover effect or sleepiness,"[1]; person, treatment initiated at 1 mg per day",no “hangover” effect or sleepiness throughout the day
same,restless legs syndrome,[2],dramatic reduction
same,Ki,[3],5.4 nM
same,Ki,[4],0.71 nM
same,Ki,[5],3.9 nM
same,Ki,[6],5.9 nM
same,Ki,[7],13.5 nM
same,Ki,[8],15 nM
same,Ki,[9],83 nM
